This data set relates to TU-2449 tumors. Description: HPLC analysis of 5-FC and 5-FU in excised TU-2449 tumors. Format: in vivo, mice. The note with it: Groups 2 and 3: PBS instead of vector, 5-FC 250 or 500 mg/kg IP.

Structures are written as SMILES.

Protocol: The study consisted of 6 groups of female mice (see Table below). All groups underwent intracranial administration into the right striatum of 1E4 TU-2449 cells administered/mouse on Day 0. At Day 4, all groups received intracranial/intratumoral administration of AC3-YCD2 (V) vector at 2.4E6 TU/5 ul (Lot#T511019) or PBS buffer control.
AC3-yCD2 (V) (5 μL) was infused at 0.33 μL per minute (15 minutes, followed by a hold of 5 minutes) intracranially at the same coordinates as TU-2449 cells were injected.
From each brain, tumors were isolated and trimmed if large enough for multiple analyses (more than 0.05 g). Tumors sections for HPLC analysis were crushed in a 1.5 mL centrifuge tube using a plunger from a 1 mL syringe. Crushed samples were mixed with 150 uL RIPA buffer and vortexed vigorously for 10 minutes. Samples were spun at 4° C. at 20000 rcf for 10 minutes. Supernatants were removed and mixed thoroughly with 150 uL of 10% trichloroacetic acid and spun as above. […] Data was expressed in relative milli absorbance units (mAU) of peak area from the chromatograms.

Take `Nc1nc(=O)[nH]cc1F` [5-FC, 5-fluorocytosine]: the “5-FC and 5-FU HPLC signals in tumor” value was “detectable 5-FC signals but no signal for 5-FU”.

The record behind these values is patent US8722867B2, “Gene therapy vectors and cytosine deaminases” (priority 2008, dated 2014).
